Consider five compounds from patent US11160887B2, “Compositions for use in diagnosing and treating melanoma, including metastatic melanoma and methods related to same” (UNM RAINFOREST INNOVATIONS, priority 2008, dated 2021).

Data set [1] addresses T1, MC1 receptor (B16/F1 murine melanoma cells) (Mus musculus, UniProt Q01727).
T1 construct: host or cells: B16/F1 murine melanoma cells
The data set can be described thus: In vitro competitive binding assay in B16/F1 cells (125I-Tyr2-NDP-MSH displacement). The note with it: 25° C., 2 h. The protocol:
In vitro Competitive Binding Assay: The IC50 values of DOTA-CycMSH and DOTA-GlyGlu-CycMSH were determined by using methods described previously (8). B16/F1 cells were harvested and seeded into a 24-well cell culture plate (5×10^5/well) and incubated at 37° C. overnight. After being washed once with binding media (MEM with 25 mM HEPES, pH 7.4, 0.2% BSA, 0.3 mM 1,10-phenathroline), the cells were incubated at room temperature (25° C.) for 2 h with approximately 50,000 cpm of ^125I-Tyr^2-[Nle^4, D-Phe^7]-α-MSH {NDP-MSH} (GE HealthCare, Piscataway, N.J.) in presence of increasing concentrations of DOTA-CycMSH or DOTA-GlyGlu-CycMSH in 0.3 ml of binding media. The reaction media were aspirated after incubation. Cells were rinsed with 0.5 ml of ice-cold pH 7.4, 0.2% BSA/0.01 M PBS twice and lysed in 0.5 ml of 1 N NaOH for 5 minutes. The activities in cells were measured in a gamma counter. The IC50 values for the peptides were calculated by using the Grafit software (Erithacus Software Limited, UK).
In vitro Competitive Binding Assay: The IC50 values of DOTA-GluGlu-CycMSH and Ac-GluGlu-CycMSH[DOTA] were determined by using methods described previously (12). B16/F1 cells were harvested and seeded into a 24-well cell culture plate (5×10^5/well) and incubated at 37° C. overnight. After being washed once with binding media (MEM with 25 mM HEPES, pH 7.4, 0.2% BSA, 0.3 mM 1,10-phenathroline), the cells were incubated at 25° C. for 2 h with approximately 50,000 cpm of ^125I-(Tyr^2)-NDP-MSH in the presence of increasing concentrations (10^−13 to 10^−6 M) of DOTA-GluGlu-CycMSH or Ac-GluGlu-CycMSH[DOTA] in 0.3 ml of binding media. The reaction media were aspirated after incubation. Cells were rinsed with 0.5 ml of ice-cold pH 7.4; 0.2% BSA/0.01 M PBS twice and lysed in 0.5 ml of 1 N NaOH for 5 min. The activities associated with cells were measured in a Wallac 1480 automated gamma counter (PerkinElmer, N.J.). The IC50 values of the peptides were calculated by using Prism software (GraphPad Software, La Jolla, Calif.).

Data set [2] deals with T2, MC1 receptor (B16/F10 murine melanoma cells) (Mus musculus, UniProt Q01727).
T2 construct: host or cells: B16/F10 murine melanoma cells
T2 sequence (Q01727 whole entry): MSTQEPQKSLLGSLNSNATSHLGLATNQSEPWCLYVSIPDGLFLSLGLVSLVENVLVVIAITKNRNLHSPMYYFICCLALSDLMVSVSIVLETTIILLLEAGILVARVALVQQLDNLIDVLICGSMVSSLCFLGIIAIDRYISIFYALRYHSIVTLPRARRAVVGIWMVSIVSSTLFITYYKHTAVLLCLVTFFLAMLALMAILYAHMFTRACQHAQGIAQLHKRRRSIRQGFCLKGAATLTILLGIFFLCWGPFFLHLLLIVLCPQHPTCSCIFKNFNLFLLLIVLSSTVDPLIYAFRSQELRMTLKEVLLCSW
The data set can be described thus: In vitro competitive binding assay in B16/F10 cells (125I-(Tyr2)-NDP-MSH displacement). The note with it: 25° C., 2 h, read-out: IC50 (MC1 receptor binding affinity). As to the method:
In vitro Competitive Binding Assay: The IC50 value of DOTA-GlyGlu-CycMSH was determined in B16/F10 cells. The cells were harvested and seeded into a 24-well cell culture plate (5×10^5/well) and incubated at 37° C. overnight. After being washed once with binding media, the cells were incubated at 25° C. for 2 h with approximately 50,000 cpm of ^125I-(Tyr^2)-NDP-MSH in the presence of increasing concentrations of DOTA-GlyGlu-CycMSH (10^−12 to 10^−5 M) in 0.3 mL of binding media. The reaction media were aspirated after incubation. Cells were rinsed with 0.5 mL of ice-cold pH 7.4, 0.2% BSA/0.01 M PBS twice, and then lysed in 0.5 mL of 1 N NaOH for 5 min. The activities associated with the cells were measured in a gamma counter. The IC50 value was calculated by using Prism software.

The nature of data set [3]: Stability in mouse serum monitored by RP-HPLC. The data set is classed as in vitro ADME. The note with it: 37° C., 24 h incubation. The protocol: Complexation of the Peptide with ^111In: ^111In-DOTA-CycMSH and ^111In-DOTA-GlyGlu-CycMSH were prepared using a 0.5 M NH4OAc-buffered solution at pH 5.4. Briefly, 50 μl of ^111InCl3 (18.5-37.0 MBq in 0.05 M HCl), 10 μl of 1 mg/ml DOTA-CycMSH or DOTA-GlyGlu-CycMSH aqueous solution and 400 μl of 0.5 M NH4OAc (pH 5.4) were added into a reaction vial and incubated at 75° C. for 45 min. After the incubation, 20 μl of 0.5% EDTA aqueous solution was added into the reaction vial to scavenge potential unbound ^111In. The radiolabeled complexes were purified to single species by Waters RP-HPLC (Milford, Mass.) on a Grace Vadyc C-18 reverse phase analytical column (Deerfield, Ill.) using a 20-minute gradient of 16-26% acetonitrile in 20 mM HCl aqueous solution with a flowrate of 1 ml/min. Purified peptide samples were purged with N2 gas for 20 minutes to remove the acetonitrile. The pH of final solution was adjusted to 7.4 with 0.1 N NaOH and normal saline for animal studies. The stability of ^111In-DOTA-CycMSH and ^111In-DOTA-GlyGlu-CycMSH was determined by incubation in mouse serum at 37° C. according to the published procedure (20) for various time periods, and monitored for degradation by RP-HPLC.

Data set [4] relates to B16/F1 murine melanoma-bearing C57 mice. Nature of the data set: Biodistribution in B16/F1 murine melanoma-bearing C57 mice. The format is in vivo, mouse. The protocol: (§1) Biodistribution Studies: All the animal studies were conducted in compliance with Institutional Animal Care and Use Committee approval. The pharmacokinetics of ^111In-DOTA-CycMSH and ^111In-DOTA-GlyGlu-CycMSH were determined in B16/F1 murine melanoma-bearing C57 female mice (Harlan, Indianapolis, Ind.). C57 mice were inoculated subcutaneously with 1×10^6 B16/F1 murine melanoma cells in the right flank. After 10 days, when the weight of tumors reached approximately 0.2 g, 0.037 MBq of ^111In-DOTA-CycMSH or ^111In-DOTA-GlyGlu-CycMSH was injected into each mouse through the tail vein. Groups of 5 mice were sacrificed at 2, 4 and 24 h post-injection, and tumors and organs of interest were harvested, weighed and counted. Blood values were taken as 6.5% of the whole-body weight. The tumor uptake specificity of ^111In-DOTA-CycMSH and ^111In-DOTA-GlyGlu-CycMSH was determined by blocking tumor uptake with the co-injection of 10 μg (6.07 nmol) of unlabeled NDP-MSH, a linear α-MSH peptide analogue with picomolar affinity for the MC1 receptors present on murine melanoma cells. Statistical analysis was performed using the Student's t-test for unpaired data.

Test in data set [5]: as above
The format is in vivo, mouse. The note with it: female, C57, mouse, iv, 0.037 MBq, total radioactivity; for tissue uptake: all time points (2, 4, 24 h). As to the method: as §1

The nature of data set [6]: Urinary metabolites by HPLC in B16/F1 melanoma-bearing C57 mice. The data set is classed as in vivo, mouse. The note with it: urine, 2 h post-injection. As to the method:
Urinary Metabolites of ^111In-DOTA-CycMSH and ^111In-DOTA-GlyGlu-CycMSH: One hundred microliter of HPLC purified ^111In-DOTA-CycMSH (0.74-1.11 MBq, 0.82-1.12 ng) or ^111In-DOTA-GlyGlu-CycMSH (0.74-1.11 MBq, 0.90-1.35 ng) was injected into each B16/F1 murine melanoma-bearing C57 mouse through the tail vein. At 2 h after dose administration, mice were sacrificed and the urine was collected. The radioactive metabolites in the urine were analyzed by injecting aliquots of urine into HPLC. A 20-minute gradient of 16-26% acetonitrile/20 mM HCl was used for the urine analysis.

For data set [7], the system named is endocytosis in tubular cells. The note with it: rat model, literature (27); cited from earlier work.

Structures are written as SMILES. Like-named read-outs stand apart in the source and are kept apart here. Residues, ends and D or L forms follow the SMILES beside them. A value given as a limit tells only on which side of the number the result lay.

The term IC50 denotes the concentration that inhibits the measured activity by half.

T1 sequence (Q01727 whole entry): as above

In the case of `CCCC[C@@H]1NC(=O)[C@@H](NC(=O)CN2CCN(CC(=O)O)CCN(CC(=O)O)CCN(CC(=O)O)CC2)CCCCNC(=O)[C@H](CC(=O)O)NC(=O)[C@H](C(C)C)NC(=O)[C@@H]2CCCN2C(=O)[C@H](CCCNC(=N)N)NC(=O)CNC(=O)[C@H](Cc2c[nH]c3ccccc23)NC(=O)[C@H](CCCNC(=N)N)NC(=O)[C@@H](Cc2ccccc2)NC(=O)[C@H](Cc2c[nH]cn2)NC(=O)[C@H](CCC(=O)O)NC1=O` [DOTA-CycMSH] (HELM PEPTIDE1{[O=C(O)CN1CCN(CC(=O)O)CCN(CC(=O)[*:2])CCN(CC(=O)O)CC1].K.[Nle].E.H.[dF].R.W.G.R.P.V.D}$PEPTIDE1,PEPTIDE1,2:R3-13:R2$$$V2.0), the IC50 in data set [1] was 1.75 nM.
Compound `CCCC[C@@H]1NC(=O)[C@@H](NC(=O)[C@H](CCC(=O)O)NC(=O)[C@H](CCC(=O)O)NC(=O)CN2CCN(CC(=O)O)CCN(CC(=O)O)CCN(CC(=O)O)CC2)CCCCNC(=O)[C@H](CC(=O)O)NC(=O)[C@H](C(C)C)NC(=O)[C@@H]2CCCN2C(=O)[C@H](CCCNC(=N)N)NC(=O)CNC(=O)[C@H](Cc2c[nH]c3ccccc23)NC(=O)[C@H](CCCNC(=N)N)NC(=O)[C@@H](Cc2ccccc2)NC(=O)[C@H](Cc2c[nH]cn2)NC(=O)[C@H](CCC(=O)O)NC1=O` [DOTA-GluGlu-CycMSH, 1,4,7,10-tetraazacyclododecane-1,4,7,10-tetraacetic acid-Glu-Glu-c[Lys-Nle-Glu-His-DPhe-Arg-Trp-Gly-Arg-Pro-Val-Asp]] (HELM PEPTIDE1{[O=C(O)CN1CCN(CC(=O)O)CCN(CC(=O)[*:2])CCN(CC(=O)O)CC1].E.E.K.[Nle].E.H.[dF].R.W.G.R.P.V.D}$PEPTIDE1,PEPTIDE1,4:R3-15:R2$$$V2.0) showed an IC50 in data set [1] of 6.73 nM.
`CCCC[C@@H]1NC(=O)[C@@H](NC(=O)[C@H](CCC(=O)O)NC(=O)CNC(=O)CN2CCN(CC(=O)O)CCN(CC(=O)O)CCN(CC(=O)O)CC2)CCCCNC(=O)[C@H](CC(=O)O)NC(=O)[C@H](C(C)C)NC(=O)[C@@H]2CCCN2C(=O)[C@H](CCCNC(=N)N)NC(=O)CNC(=O)[C@H](Cc2c[nH]c3ccccc23)NC(=O)[C@H](CCCNC(=N)N)NC(=O)[C@@H](Cc2ccccc2)NC(=O)[C@H](Cc2c[nH]cn2)NC(=O)[C@H](CCC(=O)O)NC1=O` [DOTA-GlyGlu-CycMSH, DOTA-Gly-Glu-c[Lys-Nle-Glu-His-DPhe-Arg-Trp-Gly-Arg-Pro-Val-Asp]] (HELM PEPTIDE1{[O=C(O)CN1CCN(CC(=O)O)CCN(CC(=O)[*:2])CCN(CC(=O)O)CC1].G.E.K.[Nle].E.H.[dF].R.W.G.R.P.V.D}$PEPTIDE1,PEPTIDE1,4:R3-15:R2$$$V2.0): the results for the IC50 in data set [1] and in data set [2] were 0.9 nM and 2.43 nM, respectively.
As for `CCCC[C@@H]1NC(=O)[C@@H](NC(=O)CN2CCN(CC(=O)O)CCN(CC(=O)O)CCN(CC(=O)O)CC2)CCCCNC(=O)[C@H](CC(=O)O)NC(=O)[C@H](C(C)C)NC(=O)[C@@H]2CCCN2C(=O)[C@H](CCCNC(=N)N)NC(=O)CNC(=O)[C@H](Cc2c[nH]c3ccccc23)NC(=O)[C@H](CCCNC(=N)N)NC(=O)[C@@H](Cc2ccccc2)NC(=O)[C@H](Cc2c[nH]cn2)NC(=O)[C@H](CCC(=O)O)NC1=O` [^111In-DOTA-CycMSH, metal not drawn] (HELM PEPTIDE1{[O=C(O)CN1CCN(CC(=O)O)CCN(CC(=O)[*:2])CCN(CC(=O)O)CC1].K.[Nle].E.H.[dF].R.W.G.R.P.V.D}$PEPTIDE1,PEPTIDE1,2:R3-13:R2$$$V2.0), the “stability in mouse serum” value in data set [3] is recorded as “stable”. Besides, the “tumor uptake with NDP co-injection as % of the tumor uptake without NDP co-injection” value in data set [4] (10 μg (6.07 nmol) non-radiolabeled NDP co-injection, 2 h after dose administration) was 3.0%. This compound registered a tumor uptake in data set [4] (2 h post-injection, tail vein) of 9.53±1.41 % ID/g. Besides, the tissue uptake in data set [5] (bone, read-out: bone uptake) was under 0.2 %ID/g; in data set [5] (normal organs except the kidneys, read-out: normal organ uptakes except for the kidneys), under 0.8 %ID/g. Besides, the kidney uptake at 24 h in data set [5] (kidney, 24 h after dose administration) was found to be 16 ± 2.3 %ID/g. For the same compound, the tissue uptake at 2 h in data set [5] (tumor, 2 h post-injection, tail vein) turned out to be 9.53 ± 1.41 %ID/g. Besides, the tissue uptake at 4 h in data set [5] (tumor, 4 h post-injection, tail vein) worked out at 7.54 ± 0.7 %ID/g. The tissue uptake at 24 h in data set [5] (tumor, 24 h post-injection, tail vein) amounted to 2.22 ± 0.51 %ID/g. Further, the dose excreted in data set [5] (urine, by 2 h post-injection, read-out: injected radioactivity cleared through the urinary system) was about 90%. For the same compound, the “urinary metabolites by RP-HPLC” value in data set [6] was “transformed to two more polar metabolites”.
As to `COc1cc2c(c(OC)c1OC)-c1ccc(OC)c(=O)cc1[C@@H](NC(C)=O)CC2` [colchicine], the “decrease of the renal uptake of radiolabeled peptide” value in data set [7] is on record as “up to 25%”.
